Results taken from US5300284A, “Glycosaminoglycanase inhibitor andethane diol composition for maintenance of hair growth” (priority 1991, dated 1994).

Assay: Flow-through skin penetration of 14C-labelled glucarolactone
Type: in vitro ADME, pig
Conditions: 20 hours
Text: In order to simulate human skin penetration in vivo, full thickness pig skin was used in a flow-through skin penetration cell system. For this purpose, the technique described by Bronough R L, and Stuart R F in "Methods for in vitro percutaneous absorption studies IV: The flow-throughdiffusion cell", published in J. Pharm.
This system allows for the study of percutaneous absorption from topically applied substances in a controlled manner, i.e. at controlled temperature and with constant receptor fluid flow rate. The flow-through skin penetration cell has a surface area of skin of 0.38 cm^2 exposed to a formulation containing a test substance. At time zero, 25 μl of a formulation containing tracer amounts of ^14 C-labelled glucarolactone was applied to the skin and left for 20 hours. During this period of penetration, receptor fluid flowing underneath the dermal side of the skin was collected in fractions at 2 hour intervals. At time 20 hours, the skin was vigorously washed to remove all non-absorbed material, the remaining receptor fluid in the cell also being collected at this time.
Subsequently, the piece of skin was detached from the cell and keratatomed at a thickness of about 1.3 mm. This procedure will separate the lower section of the dermis from that containing the stratum corneum, viable epidermis, upper part of dermis and neck of hair follicle. To refine further the picture of distribution of radioactivity, the upper section was subsequently tape stripped 5 times using transparent adhesive tape to remove residual radioactive materials adhering to the outer surface of the skin. All these sections were digested and counted for radioactivity. Each penetration cell therefore yielded 4 results:
i) transdermal penetration, i.e. the amount retrieved in receptor fluid flowing on the dermal side of the skin;
ii) tape strips, i.e. amounts of radio active material adhering to the skin surface;
iii) upper section of skin, i.e. remainder of stratum corneum, neck of hair follicle, viable epidermis and upper part of dermis;
iv) lower section of skin, i.e. remainder of dermis containing the remaining part of hair follicles and dermal papillae.
The results obtained from categories ii), iii) and iv) above together constitute the amounts retrieved from within the skin, i.e. dermal penetration. The results may be expressed as percentage of dose applied, or as the actual amounts delivered.
The following formulation was used to determine penetration and delivery of glucarolactone in accordance with the Bronaugh flow-through skin penetration cell technique:
Scintillation counting was employed to determine the amount of the enzyme inhibitor, glucarolactone, which had penetrated the skin to a point where it would be available to inhibit glycosaminoglycanase in the immediate environment of the hair bulb.
The results obtained are shown in the following Table 1 in which the values given represent percentages of the glucarolactone dose applied topically which actually penetrates into and through the skin and is recovered at various levels. In addition, the actual amounts of penetrated glucarolactone is given. The results shown are the average and standard error of the mean of 33 determinations.

[1] = dermal (tapes + upper + lower section), 8% w/w glucarolactone formulation, mean ± SEM of 33 determinations
[2] = lower section of skin (hair follicles, dermal papillae), 8% w/w glucarolactone formulation, mean ± SEM of 33 determinations
[3] = tape strips (skin surface), 8% w/w glucarolactone formulation, mean ± SEM of 33 determinations
[4] = total (transdermal + dermal), 8% w/w glucarolactone formulation
[5] = transdermal (receptor fluid), 8% w/w glucarolactone, 10% ethane diol formulation, mean ± SEM of 33 determinations
[6] = upper section of skin, 8% w/w glucarolactone formulation, mean ± SEM of 33 determinations

## O=C(O)[C@@H](O)[C@H]1OC(=O)[C@H](O)[C@H]1O [glucarolactone]
[1]
  Actual Amount GL Delivered, Dermal: 72.87 ± 16.62 µg
  Percentage of Applied Dose, Dermal: 3.719 ± 0.848%
[2]
  Actual Amount GL Delivered, lower section: 56.63 ± 14.33 µg
  Percentage of Applied Dose, lower section: 2.890 ± 0.731%
[3]
  Actual Amount GL Delivered, tapes: 2.38 ± 0.39 µg
  Percentage of Applied Dose, tapes: 0.122 ± 0.020%
[4]
  Actual Amount GL Delivered, Total: 80.67 µg
  Percentage of Applied Dose, Total: 4.117%
[5]
  Actual Amount GL Delivered, Transdermal: 7.80 ± 2.47 µg
  Percentage of Applied Dose, Transdermal: 0.398 ± 0.126%
[6]
  Actual Amount GL Delivered, upper section: 13.86 ± 3.00 µg
  Percentage of Applied Dose, upper section: 0.707 ± 0.153%
